# “Also recorded” adds a separate entry of the source.
# Tests used:
# human SIN3A PAH2 domain = target: T1, human SIN3A PAH2 domain (Homo sapiens, UniProt Q96ST3); test: Ligand-detected NMR, human SIN3A PAH2; format: binding, H. sapiens; conditions: 300 μM compound, 10 μM protein
# T1 construct: Residues 301-390 of human SIN3A (PAH2 domain) were inserted into the pMALC2XE vector for NMR experiments; made in house; host or cells: E. coli BL21 (DE3)
# Protocol: Ligand-detected NMR experiments: all results were acquired using a 3 mm tube at 25° C. on a Bruker 600 MHz Avance II system equipped with a CPPTCI cryoprobe (Bruker BioSpin Corp.). In all experiments, the concentration of E6R was fixed at 300 μM (from a stock of 25 mM in deuterated DMSO) and the concentration of the protein at 10 μM. The volume of deuterated DMSO was kept constant (1.5%) in all tested samples. Right before the experiments, the compound and protein were diluted in 1×PBS containing 0.1% deuterated dithiothreitol (DTT) to a total volume of 200 μL. Samples were diluted by 5% with D2O for magnetic field lock. Spectra were acquired for ligand only, protein only, and ligand+protein. […] STD experiments [Mayer et al 2001] were acquired with 160 scans, with protein irradiation applied for 3 s at 0 ppm and −20 ppm for the on and off resonance experiments, respectively. On and off resonance spectra were collected and stored separately. One-dimensional CPMG-R2 edited experiments [Hajduk et al 1997] were collected for samples with and without proteins using seven CPMG delays (0, 25, 50, 100, 300, 500, and 800 ms) with four scans per delay. Proton spectra used to measure DLB and chemical shift perturbations in the absence and presence of the proteins were recorded with 16 scans using a recycle delay of 3 s. […]
# [1] = target: T2, SIN3A occupancy at the Homer1 promoter (Mus musculus, UniProt Q60520); test: ChIP-qPCR of SIN3A at Homer1 in mouse frontal cortex; format: in vivo
# T2 construct: from tissue; host or cells: mouse frontal cortex (C57BL/6N, treated in vivo)
# Protocol: ChIP assays were performed using the MAGnify ChIP system (ThermoFisher, MA) according to the manufacturer's protocol with a few modifications. A small section (50 mg) of the frontal cortex (FC) was used. Chromatin was sheared with the Covaris® S2 system (Covaris, Woburn, MA) using the following program: duty cycle 5%, intensity 2, 200 cycles per burst, 60 s cycle per time, 20 cycles, temperature 4° C. A volume of 10 μL chromatin was used per sample. A total of 0.5 μg of the anti-H3 antibody (PA5 16183, Invitrogen, Carlsbad, CA), 1 μg of the anti-SIN3A antibody (ab3479, Abcam, Cambridge, MA) or anti-IgG (ab37355, Abcam) was used per sample. Quantitative real-time PCR analysis was performed following magnetic bead-based DNA purification. The DNA samples were amplified in quadruplicate reactions as previously described [Ibi et al 2017] using the QuantStudio 6 Flex Real-Time PCR System (Applied Biosystems) using the PowerUP SYBR Green Master Mix (Applied Biosystems). All primers for ChIP-qPCR are described in FIG. 34.
# [2] = Tolerability of chronic treatment in mice; format: in vivo; conditions: 50 mg/kg I.P. daily for 10 days
# Protocol: For the pilot RT-qPCR experiment, in addition to the vehicle condition (ethanol 100%/kolliphor/saline 0.9% in a proportion of 1:1:14.4; for the 50 mg/kg dose, 14 μL NaOH 1M were also added), three doses (mg/kg) of E6R were tested: 5, 15, and 50, with 4 (vehicle) or 3 (E6R) animals per group. A dose of 50 mg/kg was picked to conduct further experiments. For the RNA-Seq experiment, E6R was dissolved in a vehicle solution containing saline 55% v/v, DMSO 34% v/v, ethanol 5% v/v, kolliphor EL (Sigma-Aldrich, MO, USA) 5% v/v, NaOH 1M 1% v/v. The vehicle group received the same solution. Animals were injected daily by intraperitoneal (I.P.) injection with 5 μL/g of the solution (50 mg/kg of the drug or vehicle) at 11 am for 10 days. Animal wellness was verified by daily visual inspection and weighing. […] On the 11th day, animals were sacrificed by bleeding via heart puncture under carbon dioxide anesthesia. The brains were quickly removed and the bilateral frontal cortex (bregma 1.90 to 1.40 mm) was dissected followed by total RNA extraction. The spleens were also collected in the pilot RT-qPCR experiments.
# [3] = tested on: full-length G. princeps luciferase; test: GPCA control with full-length luciferase; format: cell-based, Gaussia princeps; conditions: 16 h
# Protocol: The ability of compounds to inhibit binary PPIs in the Sin3/Rpd3L HDAC complex was tested by GPCA in a high-throughput screening format. Interactions identified in the mapping at 1.0% […]2 detection cutoff were reconstituted by expressing protein pairs in the exact same orientations. […] HEK293T cells were transfected with 100 ng of each GPCA plasmid expressing either protein X, or protein Y, as described above. […] The luminescence signal for each PPI was measured by averaging the different DMSO replicates, and calculating the standard deviation of DMSO values for each interaction. For each PPI, an individual data point for every compound tested was obtained and this value was compared to the averaged DMSO value. For each interaction, a particular compound was scored as a PPI inhibitor when it decreased its luminescence signal by at least three standard deviations compared to the corresponding averaged DMSO value. […] 50 μL/well of the Renilla luciferase substrate (Renilla Luciferase Assay system, cat #E2820, Promega) were then added and luminescence was read approximately two minutes after injection using a Centro XS^3 LB960 plate reader (3 s integration). For each plate, signal was measured twice and the first measurement was used for calculations. Results were normalized by averaging raw luminescence values from DMSO wells and dividing each data point by this averaged value.
# T2 sequence (Q60520 whole entry): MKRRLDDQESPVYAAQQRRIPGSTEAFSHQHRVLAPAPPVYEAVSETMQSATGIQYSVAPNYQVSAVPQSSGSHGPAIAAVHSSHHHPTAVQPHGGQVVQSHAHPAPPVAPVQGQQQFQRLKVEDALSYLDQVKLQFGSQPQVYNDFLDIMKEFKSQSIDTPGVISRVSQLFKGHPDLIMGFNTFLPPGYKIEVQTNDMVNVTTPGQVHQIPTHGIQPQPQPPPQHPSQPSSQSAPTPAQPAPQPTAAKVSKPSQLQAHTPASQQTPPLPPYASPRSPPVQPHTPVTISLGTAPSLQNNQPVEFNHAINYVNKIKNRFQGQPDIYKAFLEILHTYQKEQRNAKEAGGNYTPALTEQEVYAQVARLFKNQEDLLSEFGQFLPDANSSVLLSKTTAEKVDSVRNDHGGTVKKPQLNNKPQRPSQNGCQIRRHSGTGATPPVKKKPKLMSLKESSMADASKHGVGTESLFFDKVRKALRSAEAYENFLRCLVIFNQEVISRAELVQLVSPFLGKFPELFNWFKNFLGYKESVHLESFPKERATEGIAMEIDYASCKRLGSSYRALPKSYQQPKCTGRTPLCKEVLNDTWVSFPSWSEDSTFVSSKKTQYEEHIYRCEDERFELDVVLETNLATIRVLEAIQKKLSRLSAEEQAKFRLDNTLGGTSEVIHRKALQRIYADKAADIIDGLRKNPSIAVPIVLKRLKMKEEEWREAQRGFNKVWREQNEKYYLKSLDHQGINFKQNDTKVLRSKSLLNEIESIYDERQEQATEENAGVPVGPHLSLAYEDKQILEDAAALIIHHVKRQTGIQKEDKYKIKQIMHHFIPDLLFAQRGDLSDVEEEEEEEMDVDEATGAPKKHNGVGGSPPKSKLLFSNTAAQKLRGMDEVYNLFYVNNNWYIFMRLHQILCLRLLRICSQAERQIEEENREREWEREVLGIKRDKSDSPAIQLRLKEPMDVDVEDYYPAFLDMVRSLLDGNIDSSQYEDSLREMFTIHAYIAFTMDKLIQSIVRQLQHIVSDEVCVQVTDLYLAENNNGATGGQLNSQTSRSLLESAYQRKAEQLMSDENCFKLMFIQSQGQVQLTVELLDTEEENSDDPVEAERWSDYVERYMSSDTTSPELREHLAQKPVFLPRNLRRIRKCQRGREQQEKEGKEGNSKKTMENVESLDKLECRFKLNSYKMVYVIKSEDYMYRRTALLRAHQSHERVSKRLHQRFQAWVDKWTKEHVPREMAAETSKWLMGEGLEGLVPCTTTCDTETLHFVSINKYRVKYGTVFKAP
# T1 sequence (Q96ST3 301-390): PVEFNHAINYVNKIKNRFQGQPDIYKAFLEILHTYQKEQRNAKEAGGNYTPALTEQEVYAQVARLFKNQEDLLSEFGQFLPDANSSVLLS
SMILES,binding to human SIN3A PAH2 by NMR (human SIN3A PAH2 domain),recruitment of SIN3A at Homer1 promoter ([1]; HDAC2 cKO mice),"recruitment of SIN3A at Homer1 promoter ([1]; WT mice, chronic 50 mg/kg, vs vehicle)","tolerability, behavior and body mass [2]",effect on full-length G. princeps luciferase [3]
"C[C@@H](NC(=O)c1c(O)n2ccccc2nc1=O)c1ccccc1 [E6R, 4-hydroxy-2-oxo-N—((R)-1-phenylethyl)-3,4-dihydro-2H-pyrido[, 2-a]pyrimidine-3-carboxamide]",could bind; also recorded: virtually identical to those of yeast Sin3 PAH2,not observed,significantly reduced recruitment; also recorded: significantly reduces,No abnormal behavior or significant body mass decrease (>5%); also recorded: well-tolerated,–
CC(NC(=O)c1c(O)n2ccccc2nc1=O)c1ccccc1 (racemic) [E6],–,–,–,–,does not perturb

# Reference: patent publication US20240299393A1, “SMALL MOLECULE DISRUPTORS OF PROTEIN INTERACTIONS IN HISTONE DEACETYLASE COMPLEXES” (Dana-Farber Cancer Institute, Inc., priority 2021, published 2024)
